Patent publication US12097232B1, “Method of preventing cadmium-induced renal toxicity using a plant product derived from Achillea millefolium L” (KING FAISAL UNIVERSITY, priority 2024, dated 2024)

Assays:
Type in all cases: in vivo, Wistar rats
[1] = system: HMGB1, TLR4, MYD88, NFκB gene expression; conditions: renal
Experimental: (§1) Thirty-two adult male Wistar rats (8-9 weeks old, weighing, 160-180 g) were purchased from the Experimental Animal Research Centre, King Saud University, Riyadh, KSA.
(§2) To study the renal protective activity of Achillea millefolium essential oil (AEO) on CdCl2-induced renal toxicity, rats were randomly divided into four groups (n=8 per group). Control rats were orally administered saline 1 h before injected intraperitoneally (i.p.) with 0.9% NaCl (physiological saline) daily for 5 days. The CdCl2 group was orally administered saline 1 h before injected i.p. with 6.5 mg/kg CdCl2 daily for 5 days. The AEO group was orally administered AEO (200 mg/kg) 1 h before injected with 0.9% NaCl (physiological saline) daily for 5 days. The AEO+CdCl2 group was orally administered AEO (100 mg/kg) 1 h before injected 6.5 mg/kg CdCl2 i.p. daily for 5 days. CdCl2 was dissolved in physiological saline.
(§3) Rats were euthanized (decapitation) 24 hours after the final dosing. The kidneys were dissected, weighed to obtain the weight and then divided into 2 parts. The 1st part was homogenized in ice-cold 10 mM phosphate buffer (pH 7.4) to produce a 10% (w/v) homogenate for biochemical analysis. The 2nd part was kept at −80° C. for quantitative real-time qRT-PCR.
(§4) Gene expression for the TLR pathway, High-mobility group box 1 (HMBG1), Toll-Like Receptor 4 (TLR4), myeloid differentiation primary response gene 88 (MYD88), and Nuclear factor kappa B (NFκB) were quantified via real-time PCR (qPCR) consuming the primers' sequences, shown in Table 1, in agreement with the method described elsewhere. Briefly, RNA was isolated and purified using a Trizol reagent kit (Invitrogen, Carlsbad, CA, USA), then a reverse transcription polymerase chain reaction (RT-PCR) kit (TaKaRa, Kusatsu, Shiga, Japan) to reverse transcription reaction following the manufacturer's procedures. qPCR was applied using a SYBR ExScript RT-PCR kit, and quantification examinations were accomplished via an Opticon-2 Real-time PCR reactor (MJ Research, Capital Court, Reno, NV, USA). qPCR results were obtained using Step PE Applied Biosystems (Waltham, MA, USA) software. Relative gene expression data were calculated as mentioned earlier by the Livak and Schmittgen method (2−^ΔΔCq2) and presented as a fold change.

[2] = Cd concentration in renal tissue by atomic absorption spectrophotometry
Experimental: as §1, §2
(§5) Rats were euthanized (decapitation) 24 hours after the final dosing. The kidneys were dissected, weighed to obtain the weight and then divided into 2 parts. […] The 2nd part was kept at −80° C. for quantitative real-time qRT-PCR.
The Cd concentrations in renal tissues were estimated as mentioned before. […] The levels of metal were measured by atomic absorption spectrophotometry in a graphite furnace at 228.8 nm. The Cd values are expressed as microgram per gram of wet renal tissue.

MDA, SOD, CAT, GPx, GSH = test: Renal oxidative stress markers in Cd-induced renal toxicity
Experimental: as §1, §2, §3
Lipid peroxidation was assessed according to the amount of malondialdehyde (MDA). The content of reduced glutathione (GSH) was evaluated and the activities of Catalase (CAT), Superoxide dismutase (SOD) and glutathione peroxidase (GPx) were estimated using kits.

[3] = system: Caspase 3, Caspase 9, Bax, Bcl2; conditions: CdCl2 renal injury vs control
Experimental: as §1, §2, §3, §4
The actions of AEO administration on the apoptotic markers, such as caspase-3 and caspase 9 were evaluated.

[4] = Kidney weight in CdCl2-induced renal toxicity rats
Experimental: as §1
All the animals were maintained with typical laboratory food and water ad libitum in a ventilated cage system (12 h light/dark cycle, 20.3-23.1° C.) throughout the whole experiment.
as §2, §5

[5] = system: kidney function biomarkers (BUN, uric acid, creatinine, NAG); test: Kidney function biomarkers in CdCl2-induced renal toxicity
Experimental: as §1, §2, §3
Biomarkers of kidney function, i.e., Blood urea nitrogen (BUN), uric acid, and creatinine, were evaluated by using specific commercial kits. N-acetyl-β-D-glucosaminidase (NAG) is a marker of tubular toxicity was assessed using ELISA kit.

[6] = system: TNF-α, IFN-γ, MCP-1, IL-10; test: Renal inflammatory mediators by ELISA in Cd-induced renal toxicity; conditions: CdCl2 group vs control
Experimental: as §1, §2, §3
Inflammation markers including interferon gamma (IFN-γ), monocyte chemoattractant protein-1 (MCP-1), tumor necrosis factor alpha (TNF-α), and interleukin 10 (IL-10) were measured using ELISA kits.

[7] = Cd experienced animals vs control
[8] = CdCl2 group: CdCl2 6.5 mg/kg i.p. daily 5 days, mean ± SD
[9] = renal, CdCl2 administered rats vs control

SMILES: [Cl][Cd][Cl] [CdCl2]
- HMGB1 mRNA expression level ([1]; Cd administered rats vs control): increased
- MYD88 mRNA expression [1, 7]: amplified significantly
- TLR4 mRNA expression [1, 7]: amplified significantly
- nuclear NFκB p65 level ([1]; Cd group vs control): significantly augmented
- Cd concentration in renal tissue (in words) ([2]; CdCl2 group vs control): significantly increased
- Cd concentration [2, 8]: 0.95 ± 0.01 μg/g renal tissue
- renal GSH content (MDA, SOD, CAT, GPx, GSH; CdCl2 group vs control): obvious reduction
- CAT activity (MDA, SOD, CAT, GPx, GSH; [9]): considerably declined
- GPx activity (MDA, SOD, CAT, GPx, GSH; [9]): considerably declined
- SOD activity (MDA, SOD, CAT, GPx, GSH; [9]): considerably declined
- MDA level (lipid peroxidation) (MDA, SOD, CAT, GPx, GSH; renal, CdCl2 group vs control): augmented
- caspase 3 renal content [3]: augmented
- caspase 9 renal content [3]: augmented
- Bax gene expression ([3]; renal): augmented
- Bcl2 gene expression ([3]; renal): diminished
- kidney weight (in words) ([4]; CdCl2 group vs control): reduction in kidney weight
- Kidney wt. [4, 8]: 1.43 ± 0.11 g
- BUN level (in words) ([5]; Cd-exposed rats vs control): increases
- serum creatinine level (in words) ([5]; Cd-exposed rats vs control): increases
- uric acid level (in words) ([5]; Cd-exposed rats vs control): increases
- BUN [5, 8]: 40.66 ± 3.15 mg/dL
- NAG [5, 8]: 33.2 ± 6.8 mIU/ml
- Uric acid [5, 8]: 4.54 ± 0.15 mg/dL
- Creatinine ([5]; serum, CdCl2 group: CdCl2 6.5 mg/kg i.p. daily 5 days, mean ± SD): 0.68 ± 0.01 mg/dL
- IFN-γ renal level [6]: amplified
- MCP-1 renal level [6]: amplified
- TNF-α renal level [6]: amplified
- IL-10 level ([6]; renal): declined
